Measurements as given in patent US20240082221A1, “COMPOSITIONS AND METHODS FOR THE IDENTIFICATION OF COMPOUNDS THAT PROTECT AGAINST LIPOFUSCIN CYTOTOXICITY” (priority 2021, published 2024).
“Also recorded” adds a separate entry of the source. Peptide text beside a SMILES is read from it. * marks the point of attachment. Cbz = O=C(OCc1ccccc1)*; CH2F = FC*

Experiments:
ARPE-19 cells = settings: for protection against light-independent LF (A2E/ATRD) cytotoxicity, RPE survival: ARPE-19, inhibitor pretreatment, A2E/ATRD 24 h, no light; for protection against light-independent LF (A2E/ATRD) cytotoxicity, RPE survival / protection against lethal doses of A2E, viability: AlamarBlue; for protection against lethal doses of A2E, viability: ARPE19 pretreated 1 hr, then A2E 25 μM for 24 hrs in presence of drug; for cell death in ARPE19 cells exposed to the substance: light-independent
Method: Cell Viability Assay. […] 1× AlamarBlue solution prepared in OptiMEM was used to replace the media supernatant and the plate's fluorescence was determined at 555 nm excitation/585 nm emission with a SpectraMax M (Molecular Devices, CA, USA), after 1 h. […] The exact timing of appearance of far-red (DRAQ7=plasma membrane leakage) and blue (NUC405=caspase 3 activation) fluorescence signals was critical to differentiate apoptosis and necrosis from secondary events, such as membrane damage and generalized proteolytic activation during the late phase of apoptosis and necrosis, respectively.
Real time monitoring of necrotic and apoptotic cell-death. Cell-death assay to study Lipofuscin's dark toxicity was performed. 90% confluent ARPE-19 or hfRPE were incubated overnight in serum free media supplemented with indicated LB concentration. Viability was assessed at 24 hrs by AlamarBlue®, or microscopy with NUC405/DRAQ7. Real time monitoring of necrotic (red) and apoptotic (blue) cell-death was performed by automated fluorescence microscopy. The exact timing of appearance of far-red (DRAQ7=plasma membrane leakage) and blue (NUC405=caspase 3 activation) fluorescence signals was critical to differentiate apoptosis and necrosis from secondary events, such as membrane damage and generalized proteolytic activation during the late phase of apoptosis and necrosis, respectively.
Chemical inhibitors. Chemical inhibitors used in this study are described in FIG. 12.

cathepsin D = format: cell-based
From the text: (§1) Next, A2E buildups were imaged using a combination of DIC and fluorescence: A2E appeared as granules with well-defined edges, both within cells or after drying over a coverslip (FIGS. 14D and 14E). Next, the ability of the suspected A2E crystals to damage lysosomal membranes was investigated. A recently developed galectin-3 puncta assay for early detection of lysosomal membrane permeabilization (LMP) was used. Briefly, cytosolic galectin-3 rapidly binds to the glycocalyx in the luminal face of lysosomal membranes as they become leaky, which is easily detectable with anti-galectin high-affinity antibodies. L-Leucyl-L-Leucine methyl ester (LLO) a lysosomotropic peptide that causes LMP was used as positive control of puncta formation (FIG. 14E). […] LMP was confirmed by showing the […] of cathepsin D, as surrogate of lysosomal enzymes. […] Also, very remarkable was the observation that the same unique pattern of protection with arimoclomol and Nec-7 but not Nec-1 was observable for LLO (FIG. 14K), consistent with the idea that necroptosis by A2E is being caused by LMP.

human MLKL = assay: Western blot of Ser358 phospho-MLKL, phosphorylation and polymerization of MLKL; format: cell-based; settings: for effect on LF-induced phosphorylation and polymerization of MLKL: non-reducing conditions, cells with A2E/ATRD; for induction of phosphorylation and polymerization of MLKL: absence of light
Method: (§2) Immunoblotting. Total cell lysates were extracted using RIPA lysis buffer (50 mM TrisHCl, Ph 8.0, 150 mM NaCl, 1% NP40, 0.5% Sodium Deoxycholate, 0.1% SDS, protease-phosphatase inhibitor) after the incubation of the specific sample group in a 48 well plate. Sonication or syringing (20 times) was done followed by centrifugation at 12,000×g for 10 mins and the supernatant was collected and stored in −80° C. Proten concentration from homogenates were assessed by Pierce Rapid Gold BCA protein assay kit (ThermoFisher Scientific, cat.no. A53225). Then 30 μg of protein was analyzed by standard SDS-PAGE gel. Samples were mixed 4:1 (v:v) with Nupage loading buffer with or without 8% 0-mercaptoethanol and heated for 10 min at 72° C. SDS-PAGE was done using 4-12% Nupage gel and buffer (Life, NP0335BOX). Next, SDS-PAGE gel was transferred to nitrocellulose membrane (Whatman, PROTAN BA83) overnight at 20V. The following day, 5% milk in TBS was used for 2 h blocking the membrane and then primary antibody was added in TBST (TBS, 0.1% Tween-20) for overnight at 4° C. Next day membranes were washed and incubated for 2 hours at room temperature with HRP conjugated secondary antibody (cat #G21234, Invitrogen) at 1:10,000 dilution. After 3 more washed membranes were probed with enhanced chemiluminescence (ECL) reagent and detected using an X-ray films for chemiluminescence image (GE healthcare, RPN2106). Scanning/imaging and quantitation of the image was done using silverfast 8 application software and Fiji Image J. Antibodies for Western blotting were list in FIG. 10.
For its phosphorylation, MLKL and its kinase need to be recruited into multiprotein complexes, known as necrosomes (FIG. 4O). Necrosomes are not well conserved among species and vary also with the nature of the stimuli that triggers their formation. […] Considering that phosphorylation of human MLKL at Ser358 (pMLKL), is a hallmark triggering event and marker of necroptosis, the Ser358-phosphorylation and polymerization status of MLKL in cells with LF was determined. […] A prerequisite for the assembly of these RIP kinases into necrosomes was their phosphorylation.

ARPE19 cells = assay: ATR-induced light-independent cell death; format: cell-based, Human; settings: pre-treatment with 33 μM
From the text: Overall, these indicate that necroptosis is a specific readout of ocular lipofuscin toxicity, easily distinguishable from the poisonous effects of ATR.

CHOP = assay: Western blot of CHOP upregulation (UPR, downstream of PERK); format: cell-based, Human; settings: cells incubated with A2E
Method: as §2

IRE1α = assay: qPCR of spliced XBP1 (XBP1s) as readout of IRE1α activity in ARPE-19; format: cell-based, Human; settings: in the dark, qPCR
From the text: RNA isolation and quantitative PCR. Total RNA was extracted from cultured cells or mouse eye RPE layer using the RNeasy Mini kit (QIAGEN). The total RNA was digested with deoxyribonuclease I to prevent amplification of genomic DNA. The total RNA then was reversed transcribed using High-Capacity cDNA Reverse Transcription Kit (ThermoFisher Scientific, cat.no. 4368814) and analyzed gene expression using SYBR Green Master Mix (ThermoFisher Scientific, cat.no. 4472908) in an Applied Biosystems StepOne real time PCR machine. GAPDH was used as a reference gene. […] After genes were amplified by real time PCR, some of the PCR products were separated by 2.5% agarose gel.

[1] = tested on: UPR (PERK and ATF6 branches); assay: Western blot of ER-stress markers (p-eIF2a, ATF4, BiP, ATF6) without illumination; format: cell-based, Human
Method: as §2
The causal link between LF accumulation and ER-stress without light assistance was analyzed (FIG. 6A). […] The activation of the IRE1α branch was visualized by qPCR.

lysosomal membranes = format: cell-based
From the text: as §1

[O-][n+]1cccc(/C(Cl)=N/OC[C@H](O)CN2CCCCC2)c1 [arimoclomol]
protection against light-independent LF (A2E/ATRD) cytotoxicity, RPE survival (ARPE-19 cells): protects against necroptosis by lipofuscin | effect on loss of cathepsin-D activity caused by A2E (cathepsin D): prevented

CN1CCN(C(=O)c2ccc(-c3ccc4c(C=O)c(O)ccc4c3)s2)CC1 [MKC-3946]
protection against light-independent LF (A2E/ATRD) cytotoxicity, RPE survival (ARPE-19 cells): did not translate into survival

COc1nccnc1NS(=O)(=O)c1ccc(NC(=O)/C=C/c2ccc([N+](=O)[O-])s2)cc1 [necrosulfonamide]
protection against light-independent LF (A2E/ATRD) cytotoxicity, RPE survival (ARPE-19 cells): increased RPE survival in a dose dependent manner

c1cc(Nc2cc(C3CC3)[nH]n2)nc(Nc2ccc3nc[nH]c3c2)n1 [APY29]
protection against light-independent LF (A2E/ATRD) cytotoxicity, RPE survival (ARPE-19 cells): did not translate into survival

CC(C)(C)c1nc(-c2cccc(NS(=O)(=O)c3c(F)cccc3F)c2F)c(-c2ccnc(N)n2)s1 [dabrafenib]
protection against light-independent LF (A2E/ATRD) cytotoxicity, RPE survival (ARPE-19 cells): increased RPE survival in a dose dependent manner

CN1C(=O)NC(Cc2c[nH]c3c(Cl)cccc23)C1=O (stereo not shown) [Nec1s]
protection against light-independent LF (A2E/ATRD) cytotoxicity, RPE survival (ARPE-19 cells): not affected | effect on LF-induced phosphorylation and polymerization of MLKL (human MLKL): not affected | effect on cell death by ATR (ARPE19 cells): did not block cell death

CN1C(=O)C(Cc2c[nH]c3ccccc23)NC1=S (stereo not shown) [Nec1, Necrostatin-1]
protection against light-independent LF (A2E/ATRD) cytotoxicity, RPE survival (ARPE-19 cells): not affected | effect on LF-induced phosphorylation and polymerization of MLKL (human MLKL): did not block phosphorylation and polymerization of MLKL; also recorded: not affected | effect on LF-induced upregulation of CHOP / UPR (CHOP): neither Nec1 nor GSK'872 effected the UPR | effect on cell death by ATR (ARPE19 cells): did not block cell death

COc1ccc(O)c(C(C)(C)C)c1 [BHA]
protection against light-independent LF (A2E/ATRD) cytotoxicity, RPE survival (ARPE-19 cells): did not rescue

CCC(=O)N1CCN(c2ccc(-n3c(=O)ccc4cnc5ccc(-c6cnc7ccccc7c6)cc5c43)cc2C(F)(F)F)CC1 [Torin-1]
protection against lethal doses of A2E, viability (ARPE-19 cells): did not confer significant protection

O=C(/C=C/c1ccccc1)NC(NC(=S)Nc1ccc(Cl)cc1)C(Cl)(Cl)Cl (stereo not shown) [SAL003]
protection against lethal doses of A2E, viability (ARPE-19 cells): protected against lipofuscin

COc1cc(OC)c(/C=C/S(=O)(=O)Cc2ccc(OC)c(OP(=O)(O)O)c2)c(OC)c1 [Briciclib]
protection against lethal doses of A2E, viability (ARPE-19 cells): did not confer significant protection

CC(C)c1nc(-c2ccc(NC(=O)Nc3cccc(C(F)(F)F)c3)c3ccccc23)c2c(N)nccn12 [KIRA3]
protection against light-independent LF (A2E/ATRD) cytotoxicity, RPE survival (ARPE-19 cells): sufficient to protect against necroptosis by LF

COc1ccc(-n2c(SCC#N)nc3sc4c(c3c2=O)CCCC4)cc1 [Nec5]
protection against light-independent LF (A2E/ATRD) cytotoxicity, RPE survival (ARPE-19 cells): not affected | effect on LF-induced phosphorylation and polymerization of MLKL (human MLKL): not affected

Cc1cc(O)c(C(=O)/C=C/c2ccc(O)c([N+](=O)[O-])c2)c(=O)o1 [Nec2]
protection against light-independent LF (A2E/ATRD) cytotoxicity, RPE survival (ARPE-19 cells): not affected | effect on LF-induced phosphorylation and polymerization of MLKL (human MLKL): not affected

all-trans-retinal dimers [ATRD]
cell death in ARPE19 cells exposed to the substance (ARPE-19 cells): Dose dependent cell death | induction of phosphorylation and polymerization of MLKL (human MLKL): dose-dependent phosphorylation and polymerization of MLKL | induction of XBP1s (IRE1α): dose and time-dependent inductions of XBP1s | induction of ATF4 and BiP ([1]; without light): highest induction of ATF4 and BiP

O=S(=O)(N=Cc1c(O)ccc2ccccc12)c1cccs1 [STF-0831]
protection against light-independent LF (A2E/ATRD) cytotoxicity, RPE survival (ARPE-19 cells): did not translate into survival

COC(=O)C[C@H](NC(=O)[C@H](C)NC(=O)[C@@H](NC(=O)OCc1ccccc1)C(C)C)C(=O)CF [z-VAD(OMe)-FMK] (Cbz-Val-Ala-Asp(OMe)-CH2F)
protection against light-independent LF (A2E/ATRD) cytotoxicity, RPE survival (ARPE-19 cells): provided no protection

tunicamycin
cleavage of ATF6 ([1]; 6 hrs treatment, 20 μM A2E): significant cleavage

CC(C)S(=O)(=O)c1ccc2nccc(Nc3ccc4scnc4c3)c2c1 [GSK'872]
protection against light-independent LF (A2E/ATRD) cytotoxicity, RPE survival (ARPE-19 cells): did not protect; also recorded: not affected | effect on LF-induced phosphorylation and polymerization of MLKL (human MLKL): did not; also recorded: not affected | effect on LF-induced upregulation of CHOP / UPR (CHOP): neither Nec1 nor GSK'872 effected the UPR

COC(=O)[C@H](CC(C)C)NC(=O)[C@@H](N)CC(C)C [LLO, L-Leucyl-L-Leucine methyl ester]
cathepsin-D activity (cathepsin D): caused reduction in cathepsin-D activity | lysosomal membrane permeabilization (galectin-3 puncta) (lysosomal membranes): induced Lysosome membrane permeabilization (LMP)

Cc1cc(=O)oc2c(C=O)c(O)ccc12 [4μ8C]
protection against light-independent LF (A2E/ATRD) cytotoxicity, RPE survival (ARPE-19 cells): did not translate into survival

methyl beta-cyclodextrins [MβCD]
protection against A2E cytotoxicity by neutralization of detergent activity (ARPE-19 cells; 10 μM methyl-βCD, 20 μM A2E): did not protect against A2E

Cc1cc(Nc2cc(N)ncn2)c(=O)n2c1C(=O)NC21CCCCC1 [eFT508]
protection against lethal doses of A2E, viability (ARPE-19 cells): did not confer significant protection

CC1=C(/C=C/C(C)=C/C=C/C(C)=C/C=O)C(C)(C)CCC1 [ATR, all-trans-retinal]
cell death in ARPE19 cells exposed to the substance (ARPE-19 cells): Dose dependent cell death | induction of phosphorylation and polymerization of MLKL (human MLKL): no increase in phosphorylation/polymerization of MLKL

N=C(N)N/N=C/c1c(Cl)cccc1Cl [Guanabenz]
protection against lethal doses of A2E, viability (ARPE-19 cells): did not confer significant protection
